Data as given in patent EP4324461A1, “(E)-N-CINAMOYLAMINOALKANOLES WITH MELANOGENESIS INHIBITORY ACTIVITY” (UNIWERSYTET JAGIELLONSKI, priority 2022, dated 2024).
Converted amounts (≈) assume the structure as drawn. Where two headings read alike, the source gives them in different places.

What was measured:
tyrosinase [1] = settings: reference [11], cited from earlier work
tyrosinase [2] = settings: cited from earlier work; for mechanism of tyrosinase inhibition: references [6], [7]
[3] = 7-day application of a cream to the skin before exposure to UV radiation; compared to untreated skin; reference [8]; cited from earlier work
[4] = system: Balb/c 3T3 murine fibroblast cell line; test: Phototoxicity in Balb/c 3T3 fibroblasts (neutral red uptake)
Description: Balb/c 3T3 cells, which are an immortalized murine fibroblast cell line, were purchased at ATTC and cultured in the medium recommended by the manufacturer (DMEM GlutaMAX, newborn calf serum (BCS), antibiotics). After multiplication, cells were placed in 96-well plates, which were incubated for 24 hours, after which all wells of the plates were washed with 150 µL of balanced salt solution (HBSS). Then, after drying the plates, 100 µL of a solution of the tested compounds in HBSS with 2% FBS was added to each well and incubated for an hour. After this time, some of the plates were irradiated using the Suntest CPS+ sunlight simulator from Atlas with appropriate filters cutting off radiation with a wavelength <320 nm (UVA radiation intensity 5 J/cm^2). The second part of the plates was placed in radiation-free conditions for the same period of time. After the exposure time, the liquid was removed from all plates and the wells were washed twice with 150 µL of HBSS, then supplemented with fresh culture medium and incubated for 24 hours in an incubator (37 °C, 5% CO2). Viability was assessed in the neutral red uptake test, which is based on the ability of the dye to penetrate only into living cells. Dye uptake was confirmed by absorbance measurement at 540 nm. […] The appropriate coefficients were also calculated: mean phototoxic effect (MPE) and photoirritation factor (PIF). PIF is the ratio of the IC50 values of unirradiated to irradiated cells, while MPE is based on the comparison of concentration-response curves. […]

[5] = system: reconstituted human epidermis EpiDerm; settings: 21 h, 0.01 %
Description: An epidermis with an area of 0.6 cm^2 was used. After receiving the tissue, the inserts were transferred to fresh medium and incubated in an incubator (5% CO2, 37 °C). All work during epidermis culture and application of the tested compounds and formulations was carried out in a laminar air flow chamber, using aseptic principles and sterile reagents and utensils. […] The applied solutions and formulation were spread on the surface of the inserts using a sterile glass bulb headed Pasteur pipette. The plates were incubated in the incubator for 21 hours, after which the inserts were transferred to new 6-well plates with 0.9 mL DBPS. 1 plate was exposed to UVA radiation at a dose of 6 J/cm^2 using a solar light simulator (Solar Simulator, Atlas) as its source (+UVA plate). The second plate was placed in a dark place outside the incubator for the same period of time (-UVA plate). After exposure, inserts from both plates were rinsed with DPBS, dried with a sterile cotton bud and placed in new plates containing 0.9 mL of fresh growth medium and incubated for 21 hours. After this time, the MTT test was performed by placing the inserts in 0.3 mL of MTT solution in DMEM medium (concentration 1 mg/mL) for 3 hours. After this time, the formed formazan was extracted into isopropanol and the absorbance of all samples was read at 270 nm. […]

[6] = Lipophilicity coefficient RM0 by reversed phase thin layer chromatography; type: physicochemical; settings: RP-18 TLC, methanol / 100 mM phosphate buffer pH = 7.4
Description: Confirmation of the identity and purity of the obtained compounds consisted in the registration and interpretation of ^1H NMR and ^13C NMR spectra (the spectra were recorded using an ECZR 500 MHz (JEOL) series FT-NMR spectrophotometer), as well as the registration and interpretation of LC-MS spectra (the spectra were recorded using Acquita UPLC system (Waters) coupled with a Waters TQD mass spectrometer). The melting point was measured using the open capillary method in the IA9300 device (Electrothermal). The lipophilicity coefficient RM0 was determined by reversed phase thin layer chromatography. In the study, aluminum plates 20x20 cm covered with modified silica gel RP-18 F254 (Merck) were used as the solid phase. The mobile phase consisted of solutions of methanol and 100 mM phosphate buffer (pH = 7.4), characterized by a variable methanol content ranging from 95 to 65% (v/v). The tested compounds were dissolved in methanol to obtain solutions with a concentration of 1 mg/mL. Then, 5 µL of the solutions prepared in this way were transferred to the starting line on aluminum plates, which were then placed in chromatographic chambers previously saturated with mobile phase vapors for at least 1 hour. All activities, including the development of chromatograms, were carried out at room temperature. After developing the chromatograms to approximately 1-2 cm from the end of the plate, the plates were dried and then the distance traveled by the tested compounds was visualized under UV light (λ = 254 nm). The experiment was performed in duplicate for the specified conditions. For all samples, Rf was calculated according to the formula Rf = a/b, where a - the distance traveled by the tested compound, b - the distance traveled by the mobile phase. Then, the RM parameter was calculated for all samples according to the formula RM = log(1/Rf - 1), obtaining a linear relationship between the RM values and the methanol concentration in the mobile phase. The logP coefficient was also calculated using the following computer programs: ACD/ChemSketch 2020.1.2 and ChemDraw 20.0.0.41. Table 2. The physicochemical data of the compounds are presented below

tyrosinase from mushroom = test: Inhibition of commercial mushroom tyrosinase (L-DOPA or L-tyrosine substrate); type: biochemical
Description: The following substrates were used for the enzymatic reaction: L-tyrosine and L-3,4-dihyroxyphenylalanine (L-DOPA). Both substrates were used in independent experiments. According to the literature, the use of L-DOPA enables the assessment of tyrosinase diphenolase activity, and L-tyrosine - the tyrosinase monophenolase activity. The determinations were performed in 96-well plates, in each well there was placed: 170 µL or 127.5 µL of 50 mM phosphate buffer (pH = 6.8) with tyrosinase (1U/well or 3U/well) and 10 µL of a solution of the tested compound in DMSO (the final concentration in the well was 500 µM, 250 µM or 125 µM). The negative control used 10 µL of pure solvent (DMSO). To initiate the reaction, an appropriate substrate was added: L-tyrosine (62.5 µL of solution in phosphate buffer) or L-DOPA (20 µL of solution in phosphate buffer). After a 25-minute incubation, the absorbance was measured at 475 nm using a microplate reader. The percentage of inhibition of tyrosinase activity was calculated using the formula: [(AC -AT)/AC] × 100, where AC - is the absorbance of the negative control, AT - is the absorbance of the sample containing the tested compound.

[7] = system: B16-F10 murine melanoma cell line; test: Cytotoxicity in B16-F10 cells (MTT); type: cell-based; settings: 48 h
Description: In order to determine safe doses of compounds for testing the inhibition of melanogenesis in a murine melanoma cell line, cytotoxicity tests were performed. Cytotoxicity was determined by the colorimetric method using MTT ([3-(4,5-dimethyl-2-thiazolyl)-2,5-diphenyl-2H-tetrazolium bromide, Sigma M5655). For this purpose, cells were transferred to 96-well plates in an amount of 5000/well. After 24 h of culture in an incubator in F 10-Ham medium with 1% FBS, the tested compounds at various concentrations were added to the wells together with fresh medium. DMSO was added to the medium in a negative control. The MTT test was performed after further culture for 48 h. Then the medium was removed and the formed formazan crystals were dissolved in DMSO. The absorbance was measured at 570 nm in a plate reader and the result was compared to the control (DMSO), which was 100%. The percentage of viability was calculated using the formula: [AT/AC^∗100], where AT is the absorbance of the test sample, AC - absorbance of the control sample. Table 3. Results of inhibiting the activity of monophenolase […] tyrosinase and cytotoxicity testing in B16F10 cells for the described compounds.

S. typhimurium TA98 = test: Ames microplate test, TA98; type: cell-based, Salmonella typhimurium; settings: without S9;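 also: reference level is the mean solvent-control yellow wells plus SD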
Description: (§1) Bacteria were grown overnight in growth medium.
(§2) Table 9. Ames microplate test results.

S. typhimurium TA100 = test: Ames microplate test, TA100; type: cell-based, Salmonella typhimurium; settings: without S9;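 also: reference level is the mean solvent-control yellow wells plus SD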
Description: as §1, §2

S. typhimurium TA1537 = test: Ames microplate test, TA1537; type: cell-based, Salmonella typhimurium; settings: without S9;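 also: reference level is the mean solvent-control yellow wells plus SD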
Description: as §1, §2

[8] = system: Chinese hamster ovary cell line (CHO-K1); test: Cytotoxicity in CHO-K1 cells (MTT) before the micronucleus test; type: cell-based; settings: 24 hours
Description: The assay was performed using a Chinese hamster ovary cell line (CHO-K1) purchased from the American Type Culture Collection (ATCC). The cells were cultured in F-12K medium with the addition of 10% fetal bovine serum (FBS) and antibiotics (streptomycin/penicillin) in an incubator at 37 °C and 5% CO2 concentration). Before the actual micronucleus test, a cytotoxicity assessment was performed to ensure that the actual test was performed only at safe concentrations. For this purpose, cells were transferred to 96-well plates and incubated with the tested compounds for 24 hours. After this time, the MTT test was performed and cell viability was assessed in comparison to the control group (cells cultured with DMSO at the same concentration as in the case of the tested samples).

[9] = system: Chinese hamster ovary cell line (CHO-K1); test: Genotoxicity in the micronucleus test in CHO-K1 cells; type: cell-based
S. typhimurium TA1535 = test: Ames microplate test, TA1535; settings: without S9;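 also: bacteria exposed to compound 90 min at 37 °C, then kept 48 h at 37 °C with indicator medium in 384-well plates, scoring wells that turned yellow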
Description: The study used the Ames microplate test (Ames MPF™ Penta 2 by Xenometrix, Allschwil, Switzerland). Growth medium, exposure medium, indicator medium, positive controls, hepatic microsomal fraction, NADP, glucose-6-phosphate, Salmonella typhimurium and Escherichia coli strains were components of the purchased experimental kit. Bacteria were grown overnight in growth medium. They were then exposed to the test compound at the appropriate concentration in exposure medium without or with the rat microsomal fraction S9 in 24-well plates for 90 min at 37 °C with shaking. Then, indicator medium was added to the wells and pipetted into 384-well plates, which were incubated for 48 hours at 37 °C without shaking. Results were assessed by counting the wells in which the medium turned yellow for each experimental condition.

E. coli WP2 = test: Ames microplate test, E. coli WP2; settings: without S9;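 also: bacteria treated 90 min at 37 °C in 24-well plates, then indicator medium dispensed to 384-well plates and incubated 48 h before yellow-well counting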
[10] = system: human reconstructed epidermis Episkin™; test: Skin irritation test in reconstructed human epidermis (Episkin); settings: 5% aqueous, 15 min exposure, 42 h incubation
Description: The study used human reconstructed epidermis Episkin™ with an area of 1.07 cm^2. Immediately after receipt, the tissue was transferred to fresh medium and cultured in an incubator (37 °C, 5% CO2) for 18 hours. Before performing experiments, the inserts were washed with sterile PBS and placed in the wells of a 12-well plate containing 2 mL of fresh culture medium. […] After 15 min of exposure, samples were washed with PBS (5x5 mL). The inserts were transferred to plates with fresh culture medium and incubated for 42 hours (37 °C, 5% CO2). After this time, the entire medium was collected to assess the amount of released interleukin 1α (the medium was stored at -20 °C until the experiment was performed), and the inserts were transferred to the MTT solution. […] Measurement of the absorbance of the samples obtained in this way at 570 nm enabled the assessment of tissue viability according to the formula: % Viability = [OD (570 nm) for the tested compound/OD (570 nm) for the control] × 100.

[11] = reference [7], read-out: IC50, tyrosinase inhibition
[12] = reference [6], read-out: IC50, tyrosinase diphenolase activity

CCOC(=O)[C@H](Cc1ccccc1)NC(=O)C=Cc1ccc(O)c(OC)c1 (stereo in doubt) [N-[3-(4-hydroxy-3-methoxyphenyl)-1-oxo-2-propen-1-yl]-L-phenylalanine ethyl ester]
type of inhibition (tyrosinase [1]): mixed type of inhibition | IC50 (tyrosinase [1]; read-out: IC50, tyrosinase inhibition): 0.185 ± 0.005 µM

O=C(O)C=Cc1ccc(Cl)cc1Cl [2,4-dichlorocinnamic acid]
IC50 (tyrosinase [2]; [11]): 295 µM | mechanism of tyrosinase inhibition (tyrosinase [2]): reversible non-competitive mechanism

O=C(O)C=Cc1ccccc1Cl [2-Chlorocinnamic acid]
IC50 (tyrosinase [2]; [11]): 765 µM | mechanism of tyrosinase inhibition (tyrosinase [2]): reversible non-competitive mechanism

O=C(O)C=Cc1ccc(O)cc1 [4-Hydroxycinnamic acid]
IC50 (tyrosinase [2]; [12]): 500 µM | inhibition of erythema formation [3]: 77%

COc1ccc(C=CC(=O)O)cc1 [4-methoxycinnamic acid]
IC50 (tyrosinase [2]; [12]): 420 µM

CN(C)CCCN1c2ccccc2Sc2ccc(Cl)cc21 [Chlorpromazine, reference compound]
phototoxic potential [4]: clearly indicate its phototoxic potential | IC50 ([4]; Mus musculus, BALB/c3T3): 18.6 µg/mL (≈ 58.2 µM) | MPE ([4]; mouse, 1 h): 0.499 | PIF ([4]; mouse, 1 h): 25.618 | Viability [% relative to water] ± SD [5]: 99.52±9.41 % relative to water

O=C(O)C=Cc1ccccc1 [Cinnamic acid]
mechanism of tyrosinase inhibition (tyrosinase [2]): non-competitive inhibitor

CC(CO)NC(=O)/C=C/c1ccc(Cl)cc1 (stereo not shown) [Compound A-102, (2E)-3-(4-chlorophenyl)-N-(1-hydroxypropan-2-yl)prop-2-enamide]
RM0 [6]: 2.12 | Tyrosinase inhibition with L-DOPA [%] (tyrosinase from mushroom; L-DOPA): 53.02±1.99% (500 µM) | IC50 (tyrosinase from mushroom; L-DOPA, read-out: Tyrosinase inhibition with L-DOPA, IC50): 440 µM | Tyrosinase inhibition with L-tyrosine [%] (tyrosinase from mushroom; L-tyrosine): 75.45±1.80% (500 µM) | IC50 (tyrosinase from mushroom; L-tyrosine, read-out: Tyrosinase inhibition with L-tyrosine, IC50): 164 µM | Cytotoxicity study in B16F10 cells % viability ([7]; 150 µM): 80.6% | Cytotoxicity study in B16F10 cells % viability ([7]; 200 µM): 83.5% | Cytotoxicity study in B16F10 cells % viability ([7]; 250 µM): 75.7% | Increase in the number of yellow wells compared to the reference level (S. typhimurium TA98; 0.5 mM): 0.24 | Increase in the number of yellow wells compared to the reference level (S. typhimurium TA98; 1.0 mM): 0.24 | Increase in the number of yellow wells compared to the reference level (S. typhimurium TA98; 2.0 mM): 0.35 | Increase in the number of yellow wells compared to the reference level (S. typhimurium TA100; 0.5 mM): 1.08 | Increase in the number of yellow wells compared to the reference level (S. typhimurium TA100; 1.0 mM): 0.75 | Increase in the number of yellow wells compared to the reference level (S. typhimurium TA100; 2.0 mM): 0.92 | Increase in the number of yellow wells compared to the reference level (S. typhimurium TA1537; 0.5 mM): 0.33 | Increase in the number of yellow wells compared to the reference level (S. typhimurium TA1537; 1.0 mM): 0.00 | Increase in the number of yellow wells compared to the reference level (S. typhimurium TA1537; 2.0 mM): 1.00 | % Viability [mean] ([8]; 100 µM): 84.7% | % Viability [mean] ([8]; 150 µM): 69.9% | % Viability [mean] ([8]; 200 µM): 87.2% | DB (dicentric bridges in 1000 binucleate cells) ([9]; 100 µM): 4.0 ± 2.8 | MN (number of micronuclei in 1000 binucleate cells) ([9]; 100 µM): 10.5 ± 2.1 | NB (nuclear buds in 1000 binucleate cells) ([9]; 100 µM): 5.5 ± 2.1 | NDI (nuclear division index) ([9]; 100 µM): 1.54 | DB (dicentric bridges in 1000 binucleate cells) ([9]; 150 µM): 2.5 ± 2.1 | MN (number of micronuclei in 1000 binucleate cells) ([9]; 150 µM): 6.5 ± 2.1 | NB (nuclear buds in 1000 binucleate cells) ([9]; 150 µM): 6.5 ± 2.1 | NDI (nuclear division index) ([9]; 150 µM): 1.54 | DB (dicentric bridges in 1000 binucleate cells) ([9]; 200 µM): 3.0 ± 1.4 | MN (number of micronuclei in 1000 binucleate cells) ([9]; 200 µM): 8.5 ± 0.7 | NB (nuclear buds in 1000 binucleate cells) ([9]; 200 µM): 4.0 ± 1.4 | NDI (nuclear division index) ([9]; 200 µM): 1.60 | Increase in the number of yellow wells compared to the reference level (S. typhimurium TA1535; 0.5 mM): 0.55 | Increase in the number of yellow wells compared to the reference level (S. typhimurium TA1535; 1.0 mM): 0.14 | Increase in the number of yellow wells compared to the reference level (S. typhimurium TA1535; 2.0 mM): 0.89 | Increase in the number of yellow wells compared to the reference level (E. coli WP2; 0.5 mM): 0.48 | Increase in the number of yellow wells compared to the reference level (E. coli WP2; 1.0 mM): 1.03 | Increase in the number of yellow wells compared to the reference level (E. coli WP2; 2.0 mM): 0.79

CCCCCCCCCCCCOS(=O)(=O)[O-].[Na+] [SDS, sodium lauryl sulfate]
tissue viability ([10]; compared to the negative control (PBS and PEG400)): 23.8% | IL-1α concentration in the culture medium ([10]; positive control): > 250 pg/mL
